Read-outs that look alike come from different tables or passages of the source.
Tested on: adhesion of normal human keratinocytes to type IV collagen
Details: for percentage increase in adhesion: compared with control cultures; for A = adhesion in μg of protein per well (mean): keratinocytes of a donor, control 3.52
Method: Coating of the Adhesion Surfaces with Type IV Collagen
Wells of microplates (Falcon) are covered with 6 μg/cm^2 of sterile type IV human collagen (from Sigma).
Each well is then incubated overnight at +4° C. with a 4 mg/ml solution of bovine albumin, BSA, from Sigma.
The wells are then rinsed twice with a phosphate buffer, PBS (phosphate buffered saline), from Gibco.
Preparation of the Cultures of Normal Human Keratinocytes
The skin fragments are incubated in 0.25% w/v trypsin for 18 hours at +4° C. to separate the dermis and epidermis and to obtain, by agitation, a suspension of epidermal cells. The trypsin is neutralized with fetal calf serum, FCS, from Gibco.
The cells are inoculated into flasks defining a surface area of 75 cm^2 and are cultured in keratinocyte proliferation medium, K-SFM, from Gibco, to the point of confluence, when they are subcultured.
The cells used for the experiments for adhesion to the collagen substrate were not subcultured beyond the first subculture (called P0 or P1).
The keratinocytes are then incubated for 30 minutes at +4° C. before the step for adhesion to the substrate coated with collagen IV is carried out.
Measurement of the Adhesion of the Keratinocytes to the Type IV Collagen
The keratinocytes are inoculated into each well at a density of 93,000 cells/cm^2 in E 199 medium from Gibco, containing 2 mM L-glutamine from Gibco and 4 mg/ml of BSA (bovine serum albumin). After incubation for one hour at +4° C., the wells are rinsed with PBS, the adhering cells are then lyzed with 0.1 N sodium hydroxide solution and the cellular proteins are then quantified by means of the calorimetric method and bicinchoninic acid (BCA from Sigma).
A calibration is performed in parallel with BSA solubilized in 0.1 N sodium hydroxide solution, enabling the optical density (OD) values to be converted to micrograms (μg) of proteins per well.
These adhesion values between treated and untreated cells were compared by the 0.7 Student t-test at the p=0.05 threshold in order to assess their level of significance.

Row | Structure (SMILES) | percentage increase in adhesion (0.25 mM) | A = adhesion in μg of protein per well (mean) (0.25 mM) | A = adhesion in μg of protein per well (mean) (0.5 mM) | percentage increase in adhesion (1 mM) | A = adhesion in μg of protein per well (mean) (1 mM)
1 | N[C@@H](CC(=O)[O-])C(=O)[O-].[Mg+2] [Magnesium aspartate, magnesium aspartate] | +54% | 5.39 μg of protein per well |  |  | 
2 | [Cl-].[Cl-].[Mg+2] [Magnesium chloride, magnesium chloride] |  | 4.32 μg of protein per well | 4.54 μg of protein per well | +31% | 4.57 μg of protein per well

— patent publication US7678380B2, “Cosmetic treatment method for fighting against skin ageing effects” (LVMH Recherche, priority 1996, dated 2010)
